Results: US10639313B2, “Compound for inhibition of delta-5-desaturase (D5D) and treatment of cancer and inflammation” (NDSU Research Foundation, priority 2017, dated 2020)
Where “and” joins values, the source holds several entries; their conditions need not be identical. Equal values may be shown once. Read-outs that look alike come from different tables or passages of the source. Blank lines part the entries; values can stand above or below the compound they belong to.

Legend:
[1] = system: HCA-7/C29 cells; assay: 8-HOA formation from cellular COX-2-catalyzed DGLA peroxidation (GC/MS) in HCA-7/C29; type: cell-based, human; conditions: 10 μM compound, DGLA-enriched medium, threshold >0.5 μM in 10^6 cells, control 0.33
Procedure: (§1) Colony formation assay was conducted in a total of three human cancer cell lines featuring high levels of COX-2, including HCA-7 (colon cancer), A549 (non-small cell lung cancer), BxPC-3 (pancreatic cancer), upon treatment of iminodibenzyl (10 μM). GC/MS was used to measure 8-HOA formation as described elsewhere.

[2] = biological target: T1, D5D (Rattus norvegicus, UniProt Q920R3); assay: Rat liver microsomal assay, conversion of DGLA to AA by D5D; type: biochemical
T1 construct: Rat liver microsomal assay was conducted
T1 sequence (Q920R3 whole entry): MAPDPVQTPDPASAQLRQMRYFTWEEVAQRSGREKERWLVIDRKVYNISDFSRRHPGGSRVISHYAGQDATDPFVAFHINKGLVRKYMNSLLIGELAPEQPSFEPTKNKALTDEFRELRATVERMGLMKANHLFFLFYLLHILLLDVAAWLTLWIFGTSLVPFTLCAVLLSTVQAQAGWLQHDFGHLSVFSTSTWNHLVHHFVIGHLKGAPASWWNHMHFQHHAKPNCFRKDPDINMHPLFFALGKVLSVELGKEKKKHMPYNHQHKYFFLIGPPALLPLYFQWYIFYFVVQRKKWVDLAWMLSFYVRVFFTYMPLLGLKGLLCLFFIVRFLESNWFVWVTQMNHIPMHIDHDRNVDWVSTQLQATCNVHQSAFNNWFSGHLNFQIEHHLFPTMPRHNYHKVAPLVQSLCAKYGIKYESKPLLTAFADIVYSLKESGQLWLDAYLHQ

[3] = system: HCA-7 xenograft tumor; assay: Xenograft tumor model, nude mice bearing HCA-7; type: in vivo; conditions: HCA-7 tumor; for [8-HOA]: control 0.03
Procedure: (§2) About two million of selected cancer cells, suspended in 50 μL of PBS, were implanted into hind flank of nude mice. Feeding with standard diet for two weeks after the cell implantation (to allow tumors reach the certain size), mice were then placed into the treatment groups. Twenty mice were randomly divided to four experimental groups (vehicle control, DGLA, […] inhibitor, and DGLA+D5D inhibitor combination) in each treatment regime to assess their anti-tumor responses. Two treatment regimes (e.g., treatment applied on every other day or every day up to 4-week) were assessed for their anti-tumor responses in HAC-7 and A459 tumor models. Every day treatment plan was listed in FIG. 9 as xenograft models and treatment example. Tumor growth was monitored twice a week using a digital caliper as well as via ultrasound image system for treatment outcome. Tumor volume was calculated: V=L×W2/2. At the endpoint (4-week treatment), the mice were euthanized, and the tumor tissues were collected, weighted, conducted for other analysis.

[4] = system: A549 xenograft tumor; assay: Xenograft tumor model, nude mice bearing A549; type: in vivo; conditions: for Tumor Growth Reduction % (vs. Control) / [8-HOA]: A549 (printed A459) tumor, every day, 4-week, DGLA 5 mg/mouse oral, iminodibenzyl 15 mg/kg i.p.; for [8-HOA]: control 0.02
Procedure: as §2, with “analysis. Tumor Growth Reduction Rate (%, Tables 5, 7) in each experiment after 4-week treatment was used to assess their associated anti-tumor responses: […]” for “analysis.”

[5] = system: Lewis Lung Carcinoma Cells (LLC); assay: Lewis Lung Carcinoma primary tumor growth and metastatic lung tumor formation; type: in vivo, C57/B6 mice; conditions: for Primary Tumor size (mm^3) / 8-HOA (μM) in Blood / Reduced Tumor Growth vs. V.C.: dose every day; for Primary Tumor size (mm^3) / Reduced Tumor Growth vs. V.C.: DGLA 5 mg/mouse, iminodibenzyl i.p. 15 mg/kg; for 8-HOA (μM) in Blood: vehicle 0.015; for Reduced Tumor Growth vs. V.C.: primary tumor; for mice that developed metastatic lung tumor: four-week treatment, Day 28 (combination up to Day 31)
Procedure: One million Lewis Lung Carcinoma Cells (LLC,), suspended in 50 μL of PBS, were implanted into front/hind flanks (0.5 million each) of C57/B6 mice. A total of twenty […] mice were divided to four groups: six in vehicle control, six in DGLA+iminodibenzyl combination, three in DGLA (oral), and five in iminodibenzyl (i.p.) group. Every day treatment regimen was started one-week after LLC cells implanted into mice blank. Primary tumor growth was monitored twice a week using a digital caliper as well as via ultrasound image system for treatment outcome. Tumor volume was calculated: […] Tumor Growth Reduction Rate (%, Table 8) in each experiment after 4-week treatment was used to assess their associated anti-tumor responses: […]

[6] = system: BxPC-3 xenograft tumor; assay: Xenograft tumor model, nude mice bearing BxPC-3; type: in vivo; conditions: BxPC-3 tumor, twice/week up to 4-week, gemcitabine 30 mg/kg, DGLA 8 mg/mouse, iminodibenzyl 25 mg/kg
[7] = system: A549 (non-small cell lung cancer); assay: Colony formation assay / cell survival, A549; type: cell-based, human; conditions: A549 (A-495 [sic]), 10 μM, DGLA-enriched media, control 100%
Procedure: as §1

[8] = system: BxPC-3 cells; assay: 8-HOA formation from COX-2-catalyzed DGLA peroxidation (GC/MS) in BxPC-3; type: cell-based, human; conditions: 10 μM, DGLA-enriched media, control 0.26
Procedure: as §1

[9] = system: HCA-7 (colon cancer); assay: Colony formation assay / cell survival, HCA-7; type: cell-based, human; conditions: for Cell Survival Rate: HCA-7/C29, DGLA-enriched media, control 100%
Procedure: as §1

[10] = system: BxPC-3 (pancreatic cancer); assay: Colony formation assay / cell survival, BxPC-3; type: cell-based, human; conditions: 10 μM, DGLA-enriched media, control 100%
Procedure: as §1

[11] = system: A549 cells; assay: 8-HOA formation from COX-2-catalyzed DGLA peroxidation (GC/MS) in A549; type: cell-based, human; conditions: A549 (A-495 [sic]) cells; 10 μM; DGLA-enriched media; control 0.29
Procedure: as §1

[12] = every day, 4-week, DGLA 5 mg/mouse oral, iminodibenzyl 15 mg/kg i.p.
[13] = inhibition of D5D conversion of DGLA to AA, rat liver microsomes, read-out: IC50 (rat microsome)

SMILES: CC(C)CCOc1ccc(N)cc1 [CP-24879, reference compound]
[8-HOA] (HCA-7 cells) [1]: 0.42 µM

IC50 [2]: 148 nM
SMILES: COc1cc(/C=C/C(=O)CC(=O)/C=C/c2ccc(O)c(OC)c2)ccc1O [Cucurmin, curcumin, reference compound]
[8-HOA] (HCA-7 cells) [1]: 0.43 µM

SMILES: CCCCC/C=C\C/C=C\C/C=C\CCCCCCC(=O)O [DGLA, dihomo-γ-linolenic acid]
Tumor Growth Reduction % (vs. Control) [3, 12]: did not deliver any inhibitory effect on tumor growth
[8-HOA] [3, 12]: 0.27 µg/g
Tumor Growth Reduction % (vs. Control) [4]: did not deliver any inhibitory effect on tumor growth
[8-HOA] [4]: 0.22 µg/g
Primary Tumor size (mm^3) ([5]; Day 14, vehicle 128): 106 mm^3
Primary Tumor size (mm^3) ([5]; Day 21, vehicle 916): 908 mm^3
Primary Tumor size (mm^3) ([5]; Day 28, vehicle 2956): 2631 mm^3
8-HOA (μM) in Blood ([5]; Day 28): 0.31 µM
Reduced Tumor Growth vs. V.C. ([5]; Day 28): unable to inhibit primary tumor growth
mice that developed metastatic lung tumor [5]: All three mice in this group developed lung tumors

SMILES: Nc1ccn([C@@H]2O[C@H](CO)[C@@H](O)C2(F)F)c(=O)n1 [Gemcitabine]
Tumor Growth Reduction % (vs. Control) [6]: 24%
Tumor Growth Reduction % (vs. Control) ([6]; listed as gemcitabine): ~24%

IC50 [2, 13]: 104 nM
SMILES: c1ccc2c(c1)CCc1ccccc1N2 [Iminodibenzyl, 10,11-dihydro-5H-dibenz[b,f]azepine]
[PGE2] in tumors after 4-week treatment ([3]; 15 mg/kg every day, vehicle control 2.0 μg/g): 1.6 µg/g
[AA] in tumors after 4-week treatment ([3]; 15 mg/kg every day, vehicle control 3.5 μg/g): 2.2 µg/g
Tumor Growth Reduction % (vs. Control) [3, 12]: 17%
[8-HOA] [3, 12]: 0.07 µg/g
Tumor Growth Reduction % (vs. Control) ([3]; every day, 4-week, DGLA 5 mg/mouse oral, iminodibenzyl 15 mg/kg i.p., listed as Iminodibenzly): 17%
Cell Survival Rate [7]: 22%
Cell Survival Rate ([7]; listed as iminodibenyl): 22%
[8-HOA] [8]: 0.53 µM
Cell Survival Rate ([9]; 10 μM): 66%
Cell Survival Rate ([9]; 10 μM, listed as iminodibenyl): 66%
viability at 10 µM ([9]; Homo sapiens, HCA-7, 48 h, read-out: cell viability): ~66%
Cell Survival Rate [10]: 73%
Cell Survival Rate ([10]; listed as iminodibenyl): 73%
Tumor Growth Reduction % (vs. Control) [4]: 40%
[8-HOA] [4]: 0.05 µg/g
Tumor Growth Reduction % (vs. Control) ([4]; listed as Iminodibenzly): 40%
[PGE2] in tumors after 4-week treatment ([4]; A549 tumor, 15 mg/kg every day, vehicle control 2.0 μg/g): 1.5 µg/g
[AA] in tumors after 4-week treatment ([4]; A549 tumor, 15 mg/kg every day, vehicle control 3.7 μg/g): 2.5 µg/g
Primary Tumor size (mm^3) ([5]; Day 14, vehicle 128): 87 mm^3
Primary Tumor size (mm^3) ([5]; Day 21, vehicle 916): 476 mm^3
Lung tumor(s) per mouse ([5]; Day 21, metastatic lung tumors, 1 mouse, vehicle 4): 0
Primary Tumor size (mm^3) ([5]; Day 28, vehicle 2956): 1153 mm^3
8-HOA (μM) in Blood ([5]; Day 28): 0.021 µM
Reduced Tumor Growth vs. V.C. ([5]; Day 28, listed as Iminodibenzy, 15 mg/kg): 58%
Reduced Tumor Growth vs. V.C. ([5]; Day 28, listed as iminodibenzyl, 15 mg/kg): 58%
mice that developed metastatic lung tumor [5]: 1 of four mice
[8-HOA] (HCA-7 cells) [1]: 0.65 µM
[8-HOA] (HCA-7 cells) ([1]; listed as iminodibenzyl): > 0.5 µM and 0.65 µM
[8-HOA] [11]: 0.83 µM

SMILES: C1=Cc2ccccc2Nc2ccccc21 [Iminostilbene, 5H-dibenz[b,f]azepine]
suppression of cancer cell growth ([9]; 10 μM, colon cancer cells): unable to suppress cancer cell growth
[8-HOA] (HCA-7 cells) [1]: did not promote 8-HOA formation

SMILES: O=c1[nH]cc(F)c(=O)[nH]1 [Molecule 5-FU, 5-fluorouracil, reference compound]
Tumor Growth Reduction % (vs. Control) ([3]; twice/week up to 4-week, 5-FU 30 mg/kg, DGLA 8 mg/mouse, iminodibenzyl 25 mg/kg): 29%

SMILES: c1cc2c(cc1[C@H]1OC[C@H]3[C@@H]1CO[C@@H]3c1ccc3c(c1)OCO3)OCO2 [Sesame, sesamin, reference compound]
[8-HOA] (HCA-7 cells) [1]: 0.33 µM
IC50 [2, 13]: 346 nM
